Assay results: patent US6737383B1, “Herbicidal oxadiazolidines” (priority 1999, dated 2004)

How the values were obtained:
[1] = tested on: rice; experiment: Test B flood test rice; assay type: in vivo, Oryza sativa
Procedure, shortened: (§1)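 Plants were grown to the 2-leaf stage before treatment with test chemical, then held in a greenhouse for twelve to sixteen days. Injury was visually rated against untreated controls on a 0–10 scale, where 0 is no effect and 10 is complete control.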

[2] = tested on: blackgrass; experiment: Test B pre/postemergence blackgrass; assay type: in vivo, Alopecurus myosuroides
Procedure, shortened: (§2)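 Herbicidal effect was estimated by eye on a ten-point control scale after plants spent twelve to sixteen days in a greenhouse following soil or foliar treatment. Foliar sprays targeted plants at one to four leaves; all doses were formulated in a non-phytotoxic solvent with surfactant.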

[3] = tested on: sugar beet; experiment: Test B pre/postemergence sugar beet; assay type: in vivo, Beta vulgaris
Procedure, shortened: as §2

[4] = tested on: morningglory; experiment: Test B pre/postemergence morningglory; assay type: in vivo, Ipomoea hederacea
Procedure, shortened: as §2

[5] = tested on: pigweed; experiment: Test B pre/postemergence pigweed; assay type: in vivo, Amaranthus retroflexus
Procedure, shortened: as §2

[6] = tested on: bedstraw; experiment: Test B pre/postemergence bedstraw; assay type: in vivo, Galium aparine
Procedure, shortened: as §2

[7] = tested on: surinam grass; experiment: Test B pre/postemergence surinam grass; assay type: in vivo, Brachiaria decumbens
Procedure, shortened: as §2

[8] = tested on: purple nutsedge; experiment: Test B pre/postemergence purple nutsedge; assay type: in vivo, Cyperus rotundus
Procedure, shortened: as §2

[9] = tested on: soybean; experiment: Test B pre/postemergence soybean; assay type: in vivo, Glycine max
Procedure, shortened: as §2

[10] = tested on: corn; experiment: Test B pre/postemergence corn; assay type: in vivo, Zea mays
Procedure, shortened: as §2

[11] = tested on: cocklebur; experiment: Test B pre/postemergence cocklebur; assay type: in vivo, Xanthium strumarium
Procedure, shortened: as §2

[12] = tested on: smallflower flatsedge; experiment: Test B flood test smallflower flatsedge; assay type: in vivo, Cyperus difformis
Procedure, shortened: as §1

[13] = tested on: crabgrass; experiment: Test B pre/postemergence crabgrass; assay type: in vivo, Digitaria sanguinalis
Procedure, shortened: as §2

[14] = tested on: duck salad; experiment: Test B flood test duck salad; assay type: in vivo, Heteranthera limosa
Procedure, shortened: as §1

[15] = tested on: wild oat; experiment: Test B pre/postemergence wild oat; assay type: in vivo, Avena fatua
Procedure, shortened: as §2

[16] = tested on: giant foxtail; experiment: Test B pre/postemergence giant foxtail; assay type: in vivo, Setaria faberii
Procedure, shortened: as §2

[17] = Rate 31 g/ha, Pre-emergence section (flood test species), scale 0 to 10
[18] = Rate 62 g/ha, headed Pre-emergence (flood test species), scale 0 to 10 (0 no effect, 10 complete control)
[19] = Rate 125 g/ha, Pre-emergence, flood test species, scale 0 to 10 where 0 is no effect and 10 is complete control
[20] = Rate 250 g/ha, Pre-emergence, flood-test species, scale 0 to 10, 0 is no effect, 10 is complete control
[21] = Postemergence, Rate 31 g/ha, visual rating, scale 0 to 10 (0 no effect, 10 complete control)
[22] = Preemergence, Rate 31 g/ha, visual rating, scale 0 to 10 (0 no effect, 10 complete control)
[23] = Preemergence, Rate 62 g/ha, scale of 0 to 10 where 0 is no effect and 10 is complete control
[24] = Preemergence, Rate 250 g/ha, scale of 0 to 10 where 0 is no effect and 10 is complete control
[25] = Rate 62 g/ha, Postemergence, scale 0 to 10 (0 no effect, 10 complete control)
[26] = Rate 125 g/ha, Postemergence, scale of 0 to 10 where 0 is no effect and 10 is complete control
[27] = Rate 125 g/ha, Preemergence, scale of 0 to 10 where 0 is no effect and 10 is complete control
[28] = Rate 250 g/ha, Postemergence, scale of 0 to 10 where 0 is no effect and 10 is complete control

With CCOCn1c(=O)on(C(=O)N(c2ccc(F)cc2)C(C)C)c1=O [Compound 295] the “Rice plant response rating” value [1, 17] was 0, the “Rice plant response rating” value [1, 18] was 0 and the “Rice plant response rating” value [1, 19] was 0. For the same compound, the “Rice plant response rating” value [1, 20] was 0, the “Blackgrass plant response rating” value [2, 21] was 0 and the “Blackgrass plant response rating” value [2, 22] was 4. The “Blackgrass plant response rating” value [2, 23] was 5, the “Blackgrass plant response rating” value [2, 24] was 10 and the “Blackgrass plant response rating” value [2, 25] was 2. The “Blackgrass plant response rating” value [2, 26] was 7, the “Blackgrass plant response rating” value [2, 27] was 10 and the “Plant response rating, Blackgrass” value [2, 28] was 9. The “Sugarbeets plant response rating” value [3, 21] was 0, the “Sugarbeets plant response rating” value [3, 22] was 0 and the “Sugarbeets plant response rating” value [3, 23] was 0. The “Sugarbeets plant response rating” value [3, 24] was 3, the “Sugarbeets plant response rating” value [3, 25] was 0 and the “Sugarbeets plant response rating” value [3, 26] was 0. For the same compound, the “Sugarbeets plant response rating” value [3, 27] was 0, the “Plant response rating, Sugarbeets” value [3, 28] was 0 and the “Morningglory plant response rating” value [4, 21] was 1. For the same compound, the “Morningglory plant response rating” value [4, 22] was 0, the “Morningglory plant response rating” value [4, 23] was 0 and the “Morningglory plant response rating” value [4, 24] was 0. The “Morningglory plant response rating” value [4, 25] was 1, the “Morningglory plant response rating” value [4, 26] was 5 and the “Morningglory plant response rating” value [4, 27] was 0. The “Plant response rating, Morningglory” value [4, 28] was 7, the “Redroot pigweed plant response rating” value [5, 21] was 0 and the “Redroot pigweed plant response rating” value [5, 22] was 0. For the same compound, the “Redroot pigweed plant response rating” value [5, 23] was 3, the “Redroot pigweed plant response rating” value [5, 24] was 6 and the “Redroot pigweed plant response rating” value [5, 25] was 0. The “Redroot pigweed plant response rating” value [5, 26] was 5, the “Redroot pigweed plant response rating” value [5, 27] was 6 and the “Plant response rating, Redroot pigweed” value [5, 28] was 7. The “Bedstraw plant response rating” value [6, 21] was 0, the “Bedstraw plant response rating” value [6, 22] was 0 and the “Bedstraw plant response rating” value [6, 23] was 0. The “Bedstraw plant response rating” value [6, 24] was 0, the “Bedstraw plant response rating” value [6, 25] was 0 and the “Bedstraw plant response rating” value [6, 26] was 4. The “Bedstraw plant response rating” value [6, 27] was 0, the “Plant response rating, Bedstraw” value [6, 28] was 4 and the “B. signalgrass plant response rating” value [7, 21] was 0. The “B. signalgrass plant response rating” value [7, 22] was 3, the “B. signalgrass plant response rating” value [7, 23] was 6 and the “B. signalgrass plant response rating” value [7, 24] was 8. For the same compound, the “B. signalgrass plant response rating” value [7, 25] was 0, the “B. signalgrass plant response rating” value [7, 26] was 0 and the “B. signalgrass plant response rating” value [7, 27] was 6. The “Plant response rating, B. signalgrass” value [7, 28] was 5, the “Nutsedge plant response rating” value [8, 21] was 0 and the “Nutsedge plant response rating” value [8, 22] was 0. For the same compound, the “Nutsedge plant response rating” value [8, 23] was 0, the “Nutsedge plant response rating” value [8, 24] was 0 and the “Nutsedge plant response rating” value [8, 25] was 0. The “Nutsedge plant response rating” value [8, 26] was 0, the “Nutsedge plant response rating” value [8, 27] was 0 and the “Plant response rating, Nutsedge” value [8, 28] was 0. For the same compound, the “Soybean plant response rating” value [9, 21] was 1, the “Soybean plant response rating” value [9, 22] was 0 and the “Soybean plant response rating” value [9, 23] was 0. For the same compound, the “Soybean plant response rating” value [9, 24] was 0, the “Soybean plant response rating” value [9, 25] was 2 and the “Soybean plant response rating” value [9, 26] was 2. For the same compound, the “Soybean plant response rating” value [9, 27] was 0, the “Plant response rating, Soybean” value [9, 28] was 4 and the “Corn plant response rating” value [10, 21] was 0. The “Corn plant response rating” value [10, 22] was 0, the “Corn plant response rating” value [10, 23] was 0 and the “Corn plant response rating” value [10, 24] was 0. For the same compound, the “Corn plant response rating” value [10, 25] was 0, the “Corn plant response rating” value [10, 26] was 0 and the “Corn plant response rating” value [10, 27] was 0. For the same compound, the “Plant response rating, Corn” value [10, 28] was 0, the “Cocklebur plant response rating” value [11, 21] was 0 and the “Cocklebur plant response rating” value [11, 22] was 0. The “Cocklebur plant response rating” value [11, 23] was 0, the “Cocklebur plant response rating” value [11, 24] was 0 and the “Cocklebur plant response rating” value [11, 25] was 0. The “Cocklebur plant response rating” value [11, 26] was 0, the “Cocklebur plant response rating” value [11, 27] was 0 and the “Plant response rating, Cocklebur” value [11, 28] was 0. The “S. Flatsedge plant response rating” value [12, 17] was 0, the “S. Flatsedge plant response rating” value [12, 18] was 0 and the “S. Flatsedge plant response rating” value [12, 19] was 0. The “S. Flatsedge plant response rating” value [12, 20] was 0, the “Crabgrass plant response rating” value [13, 21] was 0 and the “Crabgrass plant response rating” value [13, 22] was 2. For the same compound, the “Crabgrass plant response rating” value [13, 23] was 2, the “Crabgrass plant response rating” value [13, 24] was 7 and the “Crabgrass plant response rating” value [13, 25] was 0. For the same compound, the “Crabgrass plant response rating” value [13, 26] was 3, the “Crabgrass plant response rating” value [13, 27] was 7 and the “Plant response rating, Crabgrass” value [13, 28] was 8. The “Ducksalad plant response rating” value [14, 17] was 0, the “Ducksalad plant response rating” value [14, 18] was 0 and the “Ducksalad plant response rating” value [14, 19] was 0. The “Ducksalad plant response rating” value [14, 20] was 0, the “Wild oats plant response rating” value [15, 21] was 0 and the “Wild oats plant response rating” value [15, 22] was 0. The “Wild oats plant response rating” value [15, 23] was 2, the “Wild oats plant response rating” value [15, 24] was 9 and the “Wild oats plant response rating” value [15, 25] was 0. The “Wild oats plant response rating” value [15, 26] was 0, the “Plant response rating, Wild oats” value [15, 28] was 2 and the “Giant foxtail plant response rating” value [16, 21] was 0. For the same compound, the “Giant foxtail plant response rating” value [16, 22] was 8, the “Giant foxtail plant response rating” value [16, 23] was 8 and the “Giant foxtail plant response rating” value [16, 24] was 10. The “Giant foxtail plant response rating” value [16, 25] was 0, the “Giant foxtail plant response rating” value [16, 26] was 6 and the “Giant foxtail plant response rating” value [16, 27] was 10. The “Plant response rating, Giant foxtail” value [16, 28] was 9.
